Results reported in US11207331B2, “Agents, compositions and methods for enhancing neurological function” (University of Southern California, priority 2007, dated 2021).

tested on: hippocampal neural cells; assay: 3H-thymidine uptake in cultured hippocampal neural cells; format: cell-based, rat; details: 24 hours, 37° C.
Description: Biochemical analyses of 3H-thymidine uptake, as a measure of DNA synthesis, were used as the experimental vehicle to confirm the morphological observations described in examples 1 and 2. […] Thus, the range for the neurogenic effect of THP on neural cells is quite is sensitive and quite broad.
For these experiments, cultured hippocampal neural cells, derived from embryonic day 18 rat fetuses, were allowed to adhere to polylysine coated plastic cover-slips for 40 min in serum containing medium. Following adhesion, neurons were exposed to […] 3H-thymidine in the presence or absence of 100-500 nM THP and allowed to incubate at 37° C. for 24 hours in the absence or presence of the indicated steroids. Data are expressed as mean+SEM, *p<. 05,**p<0.01, ***p<0.001.
The time course of THP-induced 3H-thymidine incorporation in hippocampal neuronal cells is shown in FIG. 9 where cultured hippocampal nerve cells, derived from embryonic day 18 rat fetuses, were allowed to adhere to polylysine coated plastic cover-slips for 40 min in serum containing medium. Following adhesion, serum containing medium in the presence or absence of 10-250 nM THP plus […] 3H-thymidine and allowed to incubate at 37 for 1, 8 or 24 hours. Data are expressed as mean±SEM, *p<0.05,**p<0.01,***p<0.001.

| Molecule | effect on 3H-thymidine incorporation (steroid specificity) |
| --- | --- |
| 5α, 3P-pregnen-3-one | no effect |
| CC(=O)[C@H]1CC[C@H]2[C@@H]3CCC4=CC(=O)CC[C@]4(C)[C@H]3CC[C@]12C [Progesterone] | modest increase |
| CC(=O)[C@H]1CC[C@H]2[C@@H]3CC[C@H]4C[C@@H](O)CC[C@]4(C)[C@H]3CC[C@]12C [5cc, 3ss-THP] | no effect |
| CC(=O)[C@H]1CC[C@H]2[C@@H]3CC[C@@H]4C[C@@H](O)CC[C@]4(C)[C@H]3CC[C@]12C [5ss, 3ss-THP] | no effect |
| 5α,3α-pregnan-triol | significant decrease |
| pregnenolone sulfate | significant decrease |
| 5α,3α-pregnan-diol | significant decrease |
